These are literature values, as cited in patent US20110252579A1, “METHOD FOR TREATING FABRICS” (priority 2010, published 2011).

Where a name gives a salt, the structure may show the parent alone.

The conditions of series [1]: in water.
In series [2] the test system is typical Gram negative and positive bacteria, fungi and yeasts. The settings on record: level from about 0.001% to about 0.5% by weight of the usage composition.
Series [3] has as its system bacteria.

`OCc1ccccc1` [benzyl alcohol]: the water solubility entry in series [1] was “about 4%”.
Take `O=c1[nH]sc2ccccc12` [Proxel, 1,2-benzisothiazolin-3-one]: the “effectiveness against Gram negative and positive bacteria, fungi and yeasts” value in series [2] is “effective”.
Consider `CC1(C)C(=O)N(CO)C(=O)N1CO` [DMDM hydantoin, 1,3-bis(hydroxymethyl)-5,5-dimethyl-2,4-imidazolidinedione], for which the antimicrobial spectrum entry in series [3] is “mainly effective on bacteria”. In addition, in series [1], the water solubility entry was “more than 50%”.
Turning to `[H]/N=C(\N/C(=N/[H])NCCCCCCNC(=N)NC(=N)Nc1ccc(Cl)cc1)Nc1ccc(Cl)cc1` [chlorhexidine diacetate salt, 1,1′-hexamethylene bis(5-(p-chlorophenyl)biguanide), reference compound], the water solubility result in series [1] was “about 1.8%”.
As for `Cn1sc2c(c1=O)CCC2` [Promexal, 2-methyl-4,5-trimethylene-4-isothiazolin-3-one], in series [2], the “effectiveness against Gram negative and positive bacteria, fungi and yeasts” value is on record as “effective”.
For `O=[N+]([O-])C(Br)(CO)CO` [Bronopol, 2-bromo-2-nitropropane-1,3-diol], in series [1], the water solubility result was “about 25%”.
On to `OCCc1ccccc1` [2-phenylethanol], for which the water solubility entry in series [1] is on record as “about 2%”.
As to `CC(C)(O)C(Cl)(Cl)Cl` [chlorobutanol, 1,1,1-Trichloro-2-methylpropan-2-ol], the water solubility result in series [1] is given as “about 0.8%”.
Turning to `O=[N+]([O-])C1(Br)COCOC1` [Bronidox L, 5-bromo-5-nitro-1,3-dioxane], the water solubility entry in series [1] was “about 0.46%”.
Consider `[Na+].[O-][n+]1ccccc1[S-]` [sodium pyrithione], for which, in series [1], the water solubility result is recorded as “about 50%”.
Regarding `[H]/N=C(\N/C(=N/[H])NCCCCCCNC(=N)NC(=N)Nc1ccc(Cl)cc1)Nc1ccc(Cl)cc1` [chlorhexidine digluconate salt, 1,1′-hexamethylene bis(5-(p-chlorophenyl)biguanide), reference compound], the water solubility result in series [1] was “about 70%”.
For the compound `OCCOc1ccccc1` [2-phenoxyethanol], the water solubility result in series [1] is recorded as “about 2.67%”.
